Source: patent US20240279562A1, “BIOACTIVE ADDITIVE FOR A FUEL, USES THEREOF, FUEL COMPOSITION, AND METHOD” (TUNAP GMBH & CO. KG, priority 2021, published 2024)

Key:
Format in all cases: cell-based
[1] = system: Hormoconis resinae ATCC 20495; experiment: Antimicrobial activity according to ASTM E 1259-10, kerosene fungus; conditions: FIG. 3, additive 1000 ppm, additive composition 2000 ppm or 5000 ppm; for killing of the tested kerosene fungus: MBO 1000 ppm
From the text: • “TUNAP active ingredient”: test solution containing 1000 ppm 2-(2-heptadec-8-enyl-2-imidazolin-1-yl)ethanol additive (example according to the disclosure). • “TUNAP Protection System Diesel”: test solutions containing 2000 ppm or 5000 ppm of the additive composition “1903391” described below (corresponding to approx. 1000 ppm or 2500 ppm of the active ingredient 2-(2-heptadec-8-enyl-2-imidazolin-1-yl)ethanol) (examples according to the disclosure). • “Tunap 685 (Protezione Diesel) Biocide with MBO”: test solution containing 1000 ppm of the biocide MBO (3,3-methylenebis (5-methyloxazolidine), (comparative sample). • “BIT”: test solution containing 1000 ppm of the biocide BIT (benzisothiazolinone) (comparative sample). • “blank”: fuel without addition of an additive (comparative sample)
• at least 50% by weight 2-(2-heptadec-8-enyl-2-imidazolin-1-yl)ethanol • 10 to 20% by weight C10-C13 hydrocarbons • 5 to 10% by weight 2,6-di-tert-butyl-4-cresol • 5 to 10% by weight 2-ethylhexanol • 5 to 10% by weight 2-ethylhexyl nitrate • 5 to 10% by weight. of a mixture of bis(2-ethylhexyl)[(4-methyl-1H-1,2,3-benzotriazol-1-yl)methyl]amine, bis(2-ethylhexyl) [(4-methyl-2H-1,2,3-benzotriazol-2-yl)methyl]amine, bis(2-ethylhexyl) [(5-methyl-1H-1,2,3-benzotriazol-1-yl)methyl]amine, bis(2-ethylhexyl) [(5-methyl-2H-1,2,3-benzotriazol-2-yl)methyl]amine, bis(2-ethylhexyl) [(6-methyl-1H-1,2,3-benzotriazol-1-yl)methyl]amine
• Hormoconis resinae ATCC 20495 (“kerosene fungus”) • Pseudomonas aeruginosa DSM 15980 (“bacterium”) • Yarrowia tropicalis ATCC 48138 (“yeast”)
(§1) The antimicrobial activity of the samples against the tested microorganisms was determined according to ASTM E 1259-10.

[2] = system: Pseudomonas aeruginosa DSM 15980; experiment: Antimicrobial activity according to ASTM E 1259-10, bacterium; conditions: FIG. 4; additive composition 2000 ppm or 5000 ppm, MBO 1000 ppm
From the text: (§2) • “TUNAP active ingredient”: test solution containing 1000 ppm 2-(2-heptadec-8-enyl-2-imidazolin-1-yl)ethanol additive (example according to the disclosure). • “TUNAP Protection System Diesel”: test solutions containing 2000 ppm or 5000 ppm of the additive composition “1903391” described below (corresponding to approx. 1000 ppm or 2500 ppm of the active ingredient 2-(2-heptadec-8-enyl-2-imidazolin-1-yl)ethanol) (examples according to the disclosure). • “Tunap 685 (Protezione Diesel) Biocide with MBO”: test solution containing 1000 ppm of the biocide MBO (3,3-methylenebis (5-methyloxazolidine), (comparative sample). • “BIT”: test solution containing 1000 ppm of the biocide BIT (benzisothiazolinone) (comparative sample). • “blank”: fuel without addition of an additive (comparative sample) […]
as §1

[3] = system: Hormoconis resinae ATCC 20495; experiment: Antimicrobial efficacy according to DIN EN 15457:2014-11, kerosene fungus; conditions: FIG. 1; test solution 1% by weight additive vs 0.1% by weight MBO or MIT
From the text: (§3) • “TUNAP new”: Test solution containing 1% by weight 2-(2-heptadec-8-enyl-2-imidazolin-1-yl)ethanol additive (example according to the disclosure). • “Standard diesel bug biocide with MBO”: test solution containing 0.1% by weight of the biocide MBO (3,3-methylenebis (5-methyloxazolidine)) (comparative sample). • “MIT”: test solution containing 0.1% by weight of the biocide MIT (2-methyl-2H-isothiazol-3-one), (comparative sample). • “Pure fuel”: fuel without the addition of an additive (comparative sample)
(§4) • Hormoconis resinae ATCC 20495 (“kerosene fungus”) • Yarrowia tropicalis ATCC 48138 (“yeast fungus”)
(§5) The antimicrobial efficacy of the samples against the tested microorganisms was determined according to DIN EN 15457:2014-11.

[4] = system: Yarrowia tropicalis ATCC 48138; experiment: Antimicrobial efficacy according to DIN EN 15457:2014-11, yeast fungus; conditions: FIG. 2; test solution 1% by weight additive vs 0.1% by weight MBO or MIT
From the text: as §3, §4, §5

[5] = system: Yarrowia tropicalis ATCC 48138; experiment: Antimicrobial activity according to ASTM E 1259-10, yeast; conditions: FIG. 5; additive 1000 ppm, additive composition 2000 ppm or 5000 ppm, BIT 1000 ppm
From the text: as §2, §1

Row | Compound | killing of the tested kerosene fungus [1] | killing of the tested bacterium [2] | efficacy against the tested kerosene fungus compared with MBO and MIT [3] | efficacy against the tested yeast fungus compared with MBO and MIT [4] | efficacy against the tested kerosene fungus compared with BIT ([1]; BIT 1000 ppm) | efficacy against the tested yeast compared with BIT [5]
1 | CC1CN(CN2COC(C)C2)CO1 (stereo not shown) [MBO, 3,3-methylenebis (5-methyloxazolidine), reference compound] | almost complete killing | almost complete killing | – | – | – | –
2 | CCCCCCCCC=CCCCCCCCC1=NCCN1CCO [additive according to the disclosure, 2-(2-heptadec-8-enyl-2-imidazolin-1-yl)ethanol] | almost complete killing | – | significantly improved efficacy against the tested kerosene fungus than the conventional and also toxic biocides MBO and MIT | at least a similar efficacy against the tested yeast fungus as the conventional but toxic biocides MBO and MIT | significantly improved efficacy against the tested kerosene fungus than the conventional biocide BIT | significantly improved efficacy against the tested yeast than the conventional biocide BIT
